According to patent US6362369B1, “Phthalic acid diamide derivatives fluorine-containing aniline compounds as starting material, agricultural and horticultural insecticides, and a method for application of the insecticides” (Nihon Nohyaku Co., Ltd., priority 1997, dated 2002):

Columns and labels:
Format in all cases: in vivo
[1] = test system: diamondback moth (Plutella xylostella); assay: Insecticidal effect on diamondback moth (Test Example 1); conditions: diamondback moth; judged by the criterion of Test Example 1
Summary of the method: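 Oviposition by adults on Chinese cabbage seedling; immersion; air-dry; 25° C room. Count of hatched larvae at day 6 post-immersion → mortality → effect graded by criterion. Triplicate, 10 insects/group.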

[2] = test system: common cutworm (Spodoptera Litura); assay: Insecticidal effect on common cutworm (Test Example 2); conditions: 500 ppm, cabbage leaf dip, second-instar larvae of common cutworm, 8 days after inoculation, 25° C.
Summary of the method: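 Second-instar larvae placed in 9 cm Petri dishes with air-dried treated material, held at 25 °C. Dead and live insects counted 8 days after inoculation; mortality calculated and scored against a set criterion. Triplicate groups of 10 insects.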

[3] = test system: rice leafroller (Cnaphalocrocis medinalis); assay: Insecticidal effect on rice leafroller (Test Example 3); conditions: 500 ppm, rice lamina dip, third-instar larvae of rice leafroller, 4 days after inoculation, 25° C., humidity 70%
Summary of the method: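 Insecticidal effect is judged by a predefined criterion from dead/alive counts four days after infesting air-dried lamina with third-instar larvae, kept on moistened filter paper at 25° C, 70% humidity.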

SMILES	Insecticidal effect (Test Example 1), judged from mortality [1]	Insecticidal effect (Test Example 2), judged from mortality [2]	Insecticidal effect (Test Example 3), judged from mortality [3]
CCCNC(=O)c1c(F)cccc1C(=O)Nc1ccc(C(F)(F)C(F)(F)F)cc1F [compound 1512]	A (100)	A (100)	A (100)
CC(C)NC(=O)c1c(F)cccc1C(=O)Nc1ccc(C(F)(F)C(F)(F)F)cc1Cl [compound 1516]	A (100)	A (100)	A (100)
Cc1cc(-c2ccc(C(F)(F)F)cc2)ccc1NC(=O)c1cccc(I)c1C(=O)NC(C)C [compound 1522]	A (100)	A (100)	A (100)
CCCNC(=O)c1c(I)cccc1C(=O)Nc1ccc(C(F)(F)C(F)(F)C(F)(F)F)cc1F [compound 1524]	A (100)	A (100)	A (100)
CCN(CC)C(=O)c1c(F)cccc1C(=O)Nc1ccc(C(F)(F)C(F)(F)F)cc1C [compound 1525]	A (100)	A (100)	A (100)
CCN(CC)C(=O)c1c(F)cccc1C(=O)Nc1ccc(C(F)(C(F)(F)F)C(F)(F)F)cc1C [compound 1526]	A (100)	A (100)	A (100)
CCN(CC)C(=O)c1c(F)cccc1C(=O)Nc1ccc(C(F)(F)C(F)(F)F)cc1Cl [compound 1531]	A (100)	A (100)	A (100)
CCN(CC)C(=O)c1c(I)cccc1C(=O)Nc1ccc(C(F)(C(F)(F)F)C(F)(F)F)cc1C [compound 1532]	A (100)	A (100)	A (100)
CCN(CC)C(=O)c1c(I)cccc1C(=O)Nc1ccc(OC(F)(F)F)cc1C [compound 1533]	A (100)	A (100)	A (100)
CCN(CC)C(=O)c1c(I)cccc1C(=O)Nc1ccc(OC(F)(F)F)cc1 [compound 1534]	A (100)	A (100)	A (100)
CCN(CC)C(=O)c1c(Cl)cccc1C(=O)Nc1ccc(C(F)(F)C(F)(F)F)cc1C [compound 1535]	A (100)	A (100)	A (100)
CCN(CC)C(=O)c1c(Cl)cccc1C(=O)Nc1ccc(OC(F)(F)F)cc1C [compound 1536]	A (100)	A (100)	A (100)
CCN(CC)C(=O)c1c(Cl)cccc1C(=O)Nc1ccc(C(F)(C(F)(F)F)C(F)(F)F)cc1C [compound 1537]	A (100)	A (100)	A (100)
CCN(CC)C(=O)c1c(Cl)cccc1C(=O)Nc1ccc(OC(F)F)cc1C [compound 1538]	A (100)	A (100)	A (100)
CCN(CC)C(=O)c1c(Cl)cccc1C(=O)Nc1ccc(OC(F)(F)C(F)F)cc1C [compound 1539]	A (100)	A (100)	A (100)
CCN(CC)C(=O)c1c(Cl)cccc1C(=O)Nc1ccc(C(F)(F)C(F)(F)F)cc1Cl [compound 1540]	A (100)	A (100)	A (100)
CCN(CC)C(=O)c1c(Cl)cccc1C(=O)Nc1ccc(C(F)(F)C(F)(F)F)cc1F [compound 1541]	A (100)	A (100)	A (100)
CCN(CC)C(=O)c1c(Cl)cccc1C(=O)Nc1ccc(Cl)cc1C [compound 1542]	A (100)	D (79-50)	A (100)

SMILES	Insecticidal effect (Test Example 1), judged from mortality [1]	Insecticidal effect (Test Example 2), judged from mortality [2]	Insecticidal effect (Test Example 3), judged from mortality [3]
CCc1cc(C(F)(F)C(F)(F)F)ccc1NC(=O)c1cccc(Cl)c1C(=O)N(CC)CC [compound 1543]	A (100)	A (100)	A (100)
CCN(CC)C(=O)c1c(Cl)cccc1C(=O)Nc1ccc(OC(F)(F)F)cc1 [compound 1544]	A (100)	A (100)	A (100)
CCN(CC)C(=O)c1c(Cl)cccc1C(=O)Nc1ccc(C(F)(F)F)cc1 [compound 1545]	A (100)	D (79-50)	A (100)
CCN(CC)C(=O)c1c(F)cccc1C(=O)Nc1ccc(Cl)cc1C [compound 1546]	A (100)	C (89-80)	A (100)
CCc1cc(C(F)(F)C(F)(F)F)ccc1NC(=O)c1cccc(F)c1C(=O)N(CC)CC [compound 1549]	A (100)	D (79-50)	A (100)
CCN(CC)C(=O)c1c(C(=O)Nc2ccc(C(F)(F)C(F)(F)F)cc2C)cccc1[N+](=O)[O-] [compound 1550]	A (100)	A (100)	A (100)
CCN(CC)C(=O)c1cccc([N+](=O)[O-])c1C(=O)Nc1ccc(C(F)(F)C(F)(F)F)cc1C [compound 1551]	A (100)	D (79-50)	A (100)
Cc1cc(NC(=O)c2cccc(I)c2C(=O)NC(C)(C)C)ccc1C(F)(F)C(F)(F)F [compound 1552]	A (100)	A (100)	A (100)
CCN(CC)C(=O)c1c(I)cccc1C(=O)Nc1ccc(OC(F)(F)C(F)F)cc1C [compound 1556]	A (100)	A (100)	A (100)
CCN(CC)C(=O)c1c(I)cccc1C(=O)Nc1ccc(Cl)cc1C [compound 1557]	A (100)	A (100)	A (100)
CCN(CC)C(=O)c1c(I)cccc1C(=O)Nc1ccc(C(F)(F)F)cc1 [compound 1558]	A (100)	C (89-80)	A (100)
CCc1cc(C(F)(F)C(F)(F)F)ccc1NC(=O)c1cccc(I)c1C(=O)N(CC)CC [compound 1559]	A (100)	A (100)	A (100)
CCN(CC)C(=O)c1c(I)cccc1C(=O)Nc1ccc(C(F)(F)C(F)(F)F)cc1Cl [compound 1560]	A (100)	A (100)	A (100)
CCN(CC)C(=O)c1c(I)cccc1C(=O)Nc1ccc(C(F)(F)C(F)(F)F)cc1C [compound 1561]	A (100)	A (100)	A (100)
CC(C)(C)NC(=O)c1c(I)cccc1C(=O)Nc1ccc(C(F)(F)C(F)(F)F)cc1Br [compound 1562]	A (100)	A (100)	A (100)
Cc1cc(NC(=O)c2cccc(I)c2C(=O)NC(C)C)ccc1C(F)(F)C(F)(F)F [compound 1563]	A (100)	A (100)	A (100)
CCC(C)(C)NC(=O)c1c(I)cccc1C(=O)Nc1ccc(C(F)(F)C(F)(F)F)cc1C [compound 1565]	A (100)	A (100)	A (100)
CCC(C)(C)NC(=O)c1c(I)cccc1C(=O)Nc1ccc(OC(F)(F)F)cc1C [compound 1566]	A (100)	A (100)	A (100)
